ChEMBL document CHEMBL1142453, “Imidazoles: SAR and development of a potent class of cyclin-dependent kinase inhibitors” (Bioorg Med Chem Lett, 2008)
≈ marks a conversion by molar mass, not a printed value.

Key:
[1] = target: Cyclin-dependent kinase 2 (Homo sapiens, UniProt P24941); assay: Inhibition of CDK2
[2] = tested on: MCF7; assay: Antiproliferative activity against human MCF7 cells assessed as BrdU incorporation after 48 hrs; assay type: functional, cell-based; conditions: MCF7, 48 h
[3] = Fraction unbound in rat serum; assay type: ADME, cell-free
[4] = tested on: LoVo; assay: Antiproliferative activity against human LoVo cells assessed as BrdU incorporation after 48 hrs; assay type: functional, cell-based
[5] = target: Cyclin-dependent kinase 4 (Homo sapiens, UniProt P11802); assay: Inhibition of CDK4
[6] = Lipophilicity, log D at pH 7.4; conditions: buffer
[7] = physchem; conditions: buffer, pH 7.4
[8] = Clearance in mouse at 5.5 mg/kg, iv; assay type: ADME, organism-based; design: dose 5.5 mg/kg, route intravenous; conditions: in vivo
[9] = Tmax in mouse at 10 mg/kg, po; assay type: ADME, organism-based; design: dose 10 mg/kg, route oral; conditions: in vivo
[10] = target: T1, G1/S-specific cyclin-D3 (Homo sapiens, UniProt P30281); assay: Inhibition of Cyclin D3/CDK6
T1 sequence (P30281 whole entry): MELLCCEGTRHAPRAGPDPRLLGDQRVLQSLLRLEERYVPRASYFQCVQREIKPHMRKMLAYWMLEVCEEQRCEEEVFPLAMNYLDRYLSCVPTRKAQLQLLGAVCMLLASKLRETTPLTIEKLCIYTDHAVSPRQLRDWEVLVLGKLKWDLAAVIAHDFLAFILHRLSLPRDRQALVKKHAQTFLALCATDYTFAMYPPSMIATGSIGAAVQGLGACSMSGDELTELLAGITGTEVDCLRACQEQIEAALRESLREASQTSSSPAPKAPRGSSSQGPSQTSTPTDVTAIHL

[11] = target: G1/S-specific cyclin-E1 (Homo sapiens, UniProt P24864); assay: Inhibition of Cyclin E/CDK2
[12] = Oral bioavailability in mouse at 10 mg/kg; assay type: ADME, organism-based; conditions: in vivo
[13] = AUC (0 to t) in mouse at 10 mg/kg, po; assay type: ADME, organism-based; design: dose 10 mg/kg, route oral; conditions: plasma
[14] = target: G2/mitotic-specific cyclin-B1 (Homo sapiens, UniProt P14635); assay: Inhibition of Cyclin B1/CDK1
[15] = Cmax in mouse at 10 mg/kg, po; assay type: ADME, organism-based; design: dose 10 mg/kg, route oral; conditions: in vivo
[16] = Volume of distribution at steady state in mouse at 5.5 mg/kg, iv; assay type: ADME, organism-based; design: dose 5.5 mg/kg, route intravenous; conditions: in vivo, read-out: Vdss

Sequence of Cyclin-dependent kinase 4 (P11802 whole entry): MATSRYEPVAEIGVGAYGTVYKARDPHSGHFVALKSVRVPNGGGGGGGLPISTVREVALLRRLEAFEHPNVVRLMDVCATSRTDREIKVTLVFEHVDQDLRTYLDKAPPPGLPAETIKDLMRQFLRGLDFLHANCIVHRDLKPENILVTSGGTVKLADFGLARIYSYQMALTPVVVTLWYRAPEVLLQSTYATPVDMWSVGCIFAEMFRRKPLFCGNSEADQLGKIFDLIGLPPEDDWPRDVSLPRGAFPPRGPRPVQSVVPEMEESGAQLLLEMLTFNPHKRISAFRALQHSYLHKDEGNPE
Sequence of G1/S-specific cyclin-E1 (P24864 whole entry): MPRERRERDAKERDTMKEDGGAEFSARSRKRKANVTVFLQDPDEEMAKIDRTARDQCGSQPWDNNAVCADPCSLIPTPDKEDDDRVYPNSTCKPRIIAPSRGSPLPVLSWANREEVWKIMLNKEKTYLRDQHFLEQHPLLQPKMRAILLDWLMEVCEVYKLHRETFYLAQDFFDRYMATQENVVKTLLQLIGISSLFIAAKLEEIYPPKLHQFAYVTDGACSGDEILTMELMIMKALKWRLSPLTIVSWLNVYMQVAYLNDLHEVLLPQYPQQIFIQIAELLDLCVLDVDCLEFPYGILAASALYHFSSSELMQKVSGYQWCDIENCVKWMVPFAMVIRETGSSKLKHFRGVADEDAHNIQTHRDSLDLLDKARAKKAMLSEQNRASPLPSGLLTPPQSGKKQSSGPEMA
Sequence of G2/mitotic-specific cyclin-B1 (P14635 whole entry): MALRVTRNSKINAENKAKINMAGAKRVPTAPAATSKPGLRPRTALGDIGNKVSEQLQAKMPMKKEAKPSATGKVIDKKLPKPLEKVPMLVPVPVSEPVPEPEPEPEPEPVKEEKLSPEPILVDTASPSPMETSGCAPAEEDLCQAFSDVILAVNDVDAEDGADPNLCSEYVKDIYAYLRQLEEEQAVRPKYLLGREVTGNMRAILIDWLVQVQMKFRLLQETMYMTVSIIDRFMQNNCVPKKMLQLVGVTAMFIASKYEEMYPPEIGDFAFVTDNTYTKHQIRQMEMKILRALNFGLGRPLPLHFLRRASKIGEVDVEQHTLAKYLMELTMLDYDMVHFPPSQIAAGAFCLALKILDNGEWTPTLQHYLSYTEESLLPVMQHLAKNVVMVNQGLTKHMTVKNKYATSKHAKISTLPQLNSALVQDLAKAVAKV

| SMILES | IC50 [1] | IC50 [2] | IC50 [4] | IC50 [5] | other results |
| --- | --- | --- | --- | --- | --- |
| COCCNS(=O)(=O)c1ccc(Nc2nccc(-c3cnc4ccccn34)n2)cc1 | < 12 nM | 400 nM |  |  |  |
| COCCNS(=O)(=O)c1ccc(Nc2nccc(-c3cnc4cccnn34)n2)cc1 |  |  |  |  | fraction unbound [3]: 0.008 |
| Cc1ncc(-c2ccnc(Nc3ccc(S(=O)(=O)CCCN(C)C)cc3)n2)n1C(C)C | 36 nM |  | 890 nM | 140 nM | fraction unbound [3]: 0.32; logD [6]: 1.3; solubility [7]: > 6800 µM |
| Cc1ncc(-c2ccnc(Nc3ccc(S(=O)(=O)CCCN4CCOCC4)cc3)n2)n1C(C)C | 33 nM |  | 1200 nM | 210 nM |  |
| Cc1ncc(-c2ccnc(Nc3ccc(S(=O)(=O)Cc4ccccc4)cc3)n2)n1C(C)C | 19 nM |  | 1500 nM | 1500 nM |  |
| COCCNS(=O)(=O)c1ccc(Nc2nccc(-c3c(C)nc(C)n3C)n2)cc1 | 68 nM |  | 9200 nM | > 8600 nM |  |
| Cc1ncc(-c2ccnc(Nc3ccc(S(=O)(=O)CCCN(C)C)cc3)n2)n1C | 295 nM |  |  |  |  |
| COCCNS(=O)(=O)c1ccc(Nc2nccc(-c3cnc(C)n3C(C)C)n2)cc1 |  |  | 310 nM | 200 nM |  |
| COCCNS(=O)(=O)c1ccc(Nc2nccc(-c3cnc(C)n3C3CCCC3)n2)cc1 | < 3 nM |  | 610 nM |  |  |
| CN(C)CCNS(=O)(=O)c1ccc(Nc2nccc(-c3cnc4cccnn34)n2)cc1 |  | 260 nM |  |  |  |
| Cc1ncc(-c2ccnc(Nc3ccc(S(N)(=O)=O)cc3)n2)n1C | 11 nM | 870 nM |  |  |  |
| CCCS(=O)(=O)c1ccc(Nc2nccc(-c3cnc(C)n3C(C)C)n2)cc1 | 8 nM |  | 1800 nM |  |  |
| CNS(=O)(=O)c1ccc(Nc2nccc(-c3cnc(C)n3C)n2)cc1 | < 3 nM | 500 nM |  |  |  |
| Cc1ncc(-c2ccnc(Nc3ccc(S(=O)(=O)NCCN(C)C)cc3)n2)n1C | 25 nM | 490 nM |  |  |  |
| COCCN(C)S(=O)(=O)c1ccc(Nc2nccc(-c3cnc(C)n3C)n2)cc1 | 400 nM |  |  |  |  |
| CCn1c(-c2ccnc(Nc3ccc(S(=O)(=O)NCCOC)cc3)n2)cnc1C | 4 nM |  | 1500 nM | 1300 nM | fraction unbound [3]: 0.014 |
| COCCNS(=O)(=O)c1ccc(Nc2nccc(-c3cnc(C)n3CC(C)C)n2)cc1 | 15 nM |  | 1800 nM |  |  |
| CCn1c(-c2ccnc(Nc3ccc(S(C)(=O)=O)cc3)n2)cnc1C | 23 nM |  |  |  |  |
| CN(C)CCCNS(=O)(=O)c1ccc(Nc2nccc(-c3cnc4cccnn34)n2)cc1 |  |  |  |  | fraction unbound [3]: 0.148; logD [6]: 1.4; solubility [7]: 160 µM (≈ 72.4 µg/mL) |
| Cc1ncc(-c2ccnc(Nc3ccc(S(=O)(=O)CC4CCCO4)cc3)n2)n1C(C)C (stereo not drawn) | 13 nM |  | 1200 nM | 530 nM |  |
| COCCS(=O)(=O)c1ccc(Nc2nccc(-c3cnc(C)n3C(C)C)n2)cc1 | 14 nM |  | 690 nM | 490 nM |  |
| CNS(=O)(=O)c1ccc(Nc2nccc(-c3cnc4cccnn34)n2)cc1 | < 3 nM | 560 nM |  |  |  |
| COCCNS(=O)(=O)c1ccc(Nc2nccc(-c3cnc(C)n3C)n2)cc1 | 8 nM | 620 nM | 4000 nM | 5600 nM |  |
| Cc1ncc(-c2ccnc(Nc3ccc(S(=O)(=O)NCCCOC(C)C)cc3)n2)n1C | 6 nM | 320 nM |  |  |  |
| CN(C)CCNS(=O)(=O)c1ccc(Nc2nccc(-c3cnc4ccccn34)n2)cc1 |  |  |  |  | fraction unbound [3]: 0.03; logD [6]: 2.7; solubility [7]: 31 µM (≈ 13.6 µg/mL) |
| NS(=O)(=O)c1ccc(Nc2nccc(-c3cnc4ccccn34)n2)cc1 | 2 nM | 260 nM |  |  | fraction unbound [3]: 0.001; logD [6]: 2.7; solubility [7]: 6.5 µM (≈ 2.38 µg/mL) |
| Cc1ncc(-c2ccnc(Nc3ccc(S(C)(=O)=O)cc3)n2)n1C(C)C [AZD-5438] |  |  | 630 nM |  | clearance [8]: 21.8 mL/min/kg; Tmax [9]: 19.8 min; fraction unbound [3]: 0.087; IC50 [10]: 21 nM; IC50 [11]: 6 nM; bioavailability [12]: 91%; logD [6]: 2.4; AUC(0-t) [13]: 18.7 µM·h; solubility [7]: 218 µM (≈ 81 µg/mL); IC50 [14]: 16 nM; Cmax [15]: 6.4 µM; Vd [16]: 1.01 L/kg |
